Reference: ChEMBL document CHEMBL1156427, “Hepatitis C virus NS5A is a direct substrate of casein kinase I-alpha, a cellular kinase identified by inhibitor affinity chromatography using specific NS5A hyperphosphorylation inhibitors” (J Biol Chem, 2007)

Key:
[1] = biological target: Ribosomal protein S6 kinase alpha-3 (Homo sapiens, UniProt P51812); test: Inhibition of human RSK2
[2] = biological target: MAP kinase p38 (Homo sapiens, UniProt O15264+Q15759+Q16539+P53778); test: Inhibition of human p38 MAPK; format: protein assay
[3] = biological target: Casein kinase I isoform delta (Homo sapiens, UniProt P48730); test: Inhibition of human CKIdelta
Sequence of Casein kinase I isoform delta (P48730 whole entry, canonical isoform): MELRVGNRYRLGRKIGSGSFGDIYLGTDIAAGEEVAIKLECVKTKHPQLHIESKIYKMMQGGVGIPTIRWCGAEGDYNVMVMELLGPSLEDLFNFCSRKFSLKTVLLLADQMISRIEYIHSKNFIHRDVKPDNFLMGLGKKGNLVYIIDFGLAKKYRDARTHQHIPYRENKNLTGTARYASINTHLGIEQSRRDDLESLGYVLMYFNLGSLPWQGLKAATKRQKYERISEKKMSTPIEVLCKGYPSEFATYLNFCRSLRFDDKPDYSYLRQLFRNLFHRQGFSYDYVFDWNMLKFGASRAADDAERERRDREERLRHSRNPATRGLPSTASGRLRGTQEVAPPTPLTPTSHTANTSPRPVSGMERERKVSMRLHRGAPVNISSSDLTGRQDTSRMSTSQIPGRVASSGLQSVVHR

[4] = biological target: Casein kinase I isoform alpha (Homo sapiens, UniProt P48729); test: Inhibition of human CKIalpha
Sequence of Casein kinase I isoform alpha (P48729 whole entry, canonical isoform): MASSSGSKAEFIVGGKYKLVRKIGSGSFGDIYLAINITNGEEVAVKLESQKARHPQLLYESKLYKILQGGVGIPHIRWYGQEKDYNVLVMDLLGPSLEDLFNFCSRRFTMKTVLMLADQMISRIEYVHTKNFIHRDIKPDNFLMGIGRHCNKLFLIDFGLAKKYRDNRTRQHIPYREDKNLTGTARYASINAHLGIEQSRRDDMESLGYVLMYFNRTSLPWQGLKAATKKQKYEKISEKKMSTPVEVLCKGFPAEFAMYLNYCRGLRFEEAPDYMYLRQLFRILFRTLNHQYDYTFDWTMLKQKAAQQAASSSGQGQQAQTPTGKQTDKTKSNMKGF

[5] = Inhibition of human PKA
[6] = biological target: Mitogen-activated protein kinase 8 (Homo sapiens, UniProt P45983); test: Inhibition of human JNK1
Sequence of Mitogen-activated protein kinase 8 (P45983 whole entry): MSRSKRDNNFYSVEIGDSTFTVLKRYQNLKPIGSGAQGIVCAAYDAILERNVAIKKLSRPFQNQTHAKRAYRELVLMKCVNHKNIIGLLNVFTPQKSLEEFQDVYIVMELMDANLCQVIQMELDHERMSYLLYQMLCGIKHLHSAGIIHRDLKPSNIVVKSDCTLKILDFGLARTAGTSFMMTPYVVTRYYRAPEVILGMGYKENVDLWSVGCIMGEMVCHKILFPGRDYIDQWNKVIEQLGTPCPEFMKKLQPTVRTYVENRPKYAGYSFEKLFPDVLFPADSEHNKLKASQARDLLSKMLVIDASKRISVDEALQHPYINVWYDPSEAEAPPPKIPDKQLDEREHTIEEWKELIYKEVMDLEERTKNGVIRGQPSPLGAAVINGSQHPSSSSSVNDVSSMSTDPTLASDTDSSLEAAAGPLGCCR

[7] = biological target: Mitogen-activated protein kinase 9 (Homo sapiens, UniProt P45984); test: Inhibition of human JNK2
Sequence of Mitogen-activated protein kinase 9 (P45984 whole entry): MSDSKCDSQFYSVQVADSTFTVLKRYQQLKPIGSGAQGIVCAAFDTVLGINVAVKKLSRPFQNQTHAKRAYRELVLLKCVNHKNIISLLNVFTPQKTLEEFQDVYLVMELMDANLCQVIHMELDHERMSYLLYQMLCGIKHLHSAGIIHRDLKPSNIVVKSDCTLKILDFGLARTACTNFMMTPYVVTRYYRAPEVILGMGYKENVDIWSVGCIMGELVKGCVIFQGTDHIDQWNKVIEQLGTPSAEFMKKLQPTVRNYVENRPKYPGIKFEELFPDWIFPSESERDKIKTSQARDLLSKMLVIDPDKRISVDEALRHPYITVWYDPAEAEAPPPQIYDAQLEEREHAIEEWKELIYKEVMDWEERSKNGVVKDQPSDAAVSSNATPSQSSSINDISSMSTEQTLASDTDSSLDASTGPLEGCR

[8] = biological target: Casein kinase II subunit alpha (Homo sapiens, UniProt P68400); test: Inhibition of human CK2
Sequence of Casein kinase II subunit alpha (P68400 whole entry): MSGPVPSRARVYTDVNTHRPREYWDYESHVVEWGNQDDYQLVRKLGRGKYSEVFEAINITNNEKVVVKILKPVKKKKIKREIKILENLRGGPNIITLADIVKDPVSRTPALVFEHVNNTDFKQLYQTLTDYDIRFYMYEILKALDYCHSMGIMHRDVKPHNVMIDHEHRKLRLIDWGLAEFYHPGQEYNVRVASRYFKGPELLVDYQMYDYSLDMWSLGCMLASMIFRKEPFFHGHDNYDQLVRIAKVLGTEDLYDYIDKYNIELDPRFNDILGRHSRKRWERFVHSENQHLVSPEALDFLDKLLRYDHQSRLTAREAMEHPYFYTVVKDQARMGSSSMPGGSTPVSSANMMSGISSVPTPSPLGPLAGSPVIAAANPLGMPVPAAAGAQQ

Sequence of Ribosomal protein S6 kinase alpha-3 (P51812 whole entry): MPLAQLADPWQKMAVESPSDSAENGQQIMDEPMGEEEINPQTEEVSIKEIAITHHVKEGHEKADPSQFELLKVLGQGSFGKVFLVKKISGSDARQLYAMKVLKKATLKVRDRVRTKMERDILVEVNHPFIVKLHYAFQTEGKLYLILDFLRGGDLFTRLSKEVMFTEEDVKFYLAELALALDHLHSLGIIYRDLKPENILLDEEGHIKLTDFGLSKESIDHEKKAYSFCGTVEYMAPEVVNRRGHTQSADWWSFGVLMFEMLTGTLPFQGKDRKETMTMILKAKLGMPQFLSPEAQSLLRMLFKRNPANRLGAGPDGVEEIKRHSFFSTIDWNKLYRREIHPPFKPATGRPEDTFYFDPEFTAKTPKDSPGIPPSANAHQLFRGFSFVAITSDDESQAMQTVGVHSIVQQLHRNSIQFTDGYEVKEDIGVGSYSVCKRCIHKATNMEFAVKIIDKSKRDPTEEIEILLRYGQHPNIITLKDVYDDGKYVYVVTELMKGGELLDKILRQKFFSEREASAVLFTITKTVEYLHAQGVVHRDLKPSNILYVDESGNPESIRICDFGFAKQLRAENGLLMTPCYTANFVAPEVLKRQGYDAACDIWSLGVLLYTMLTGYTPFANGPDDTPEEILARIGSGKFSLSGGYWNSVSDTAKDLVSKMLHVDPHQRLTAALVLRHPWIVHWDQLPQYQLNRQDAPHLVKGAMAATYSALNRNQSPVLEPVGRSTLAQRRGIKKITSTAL

IC50 [1] [µM]	IC50 [2]	IC50 [3] [µM]	IC50 [4] [µM]	IC50 [5] [µM]	IC50 [6] [µM]	IC50 [7] [µM]	IC50 [8] [µM]	Compound
76	<= 0.028 uM	1.4	1.1	260	385	404	> 100	CNc1nccc(-c2nc(C3CCNCC3)[nH]c2-c2cccc(C(F)(F)F)c2)n1
39	<= 0.024 uM	0.4	1.3	2	175	166	> 100	CC1CCC(c2nc(-c3ccc(F)cc3)c(-c3ccncc3)[nH]2)CC1 (stereo unspecified)
